Laboratory results taken from US7271158B2, “Treatment of rumen acidosis with α-amylase inhibitors” (Pfizer Inc., priority 2000, dated 2007).
pIC50: −log10 of the molar value.

Columns and labels:
[1] = system: bacterial glucosidase activity from bovine rumen fluid cell suspension; assay: Rumen fluid glucosidase assay; format: biochemical, bovine rumen bacteria; conditions: rumen fluid glucosidase screen, maltose substrate
Method: Rumen Fluid Glucosidase Assay Protocol This assay is used to determine IC50 values for inhibitors of bacterial glucosidase activity from bovine rumen fluid cell suspension (RFCS) using a colorimetric assay. The assay measures conversion of maltose into glucose. Rumen fluid cells are incubated with maltose in the presence of inhibitors, and the amount of glucose produced is assessed using a red colourimetric endpoint. The higher the level of inhibition the lower the glucose produced and the less red colour produced. The plates are read at 450 nm. Main reaction: • Maltose+glucosidase→glucose Glucose assay • Glucose+ATP→[…] and ADP (Hexokinase and Mg^2+) • […] and NADP→6-phosphogluconate (6-PG) and NADPH • NADPH+phenazine methosulfate ([…] (iodonitrotetrazolium chloride)→[…] is deep red coloured. […] The rumen fluid was collected into pre-warmed vacuum flasks. It was then filtered through a double layer of absorbent gauze (Absorbent gauze BP, GAUZ 4 from Robert Bailey plc, Stockport) to remove hay and feed particles. The liquid was centrifuged at a relative centrifugal force of 650 for 15 minutes to remove food particles and protozoa. The supernatant was decanted into fresh tubes and centrifuged at a relative centrifugal force of 23,300 for 60 minutes. The supernatant and the loose top layer of the pellet were discarded. The pellet was resuspended in PBS at 1:8 of original volume i.e. 50 ml of PBS for the pellet from 400 ml of rumen fluid, and frozen at -20° C. When required for use the cells were thawed by standing the tube in cold water, and then diluted to […] of cells/well (45 μl/ml). Test compounds or controls were dispensed into the 96-well assay plate at 2 μl/well, followed by 50 μl per well of 10 mM maltose and 50 μl/well of rumen fluid cell suspension. The plate was incubated at 37° C. for 1 hour. Sigma glucose detection kit […] was reconstituted by addition of 17 ml of Millipore water and 4 ml of colour reagent to each vial. 100 μl of this solution was added per well and the plate returned to the 37° C. incubator for 45 minutes. The plate was then read at 450 nm. Active compounds cause a reduction in the optical density readings when compared to the no-inhibitor control wells.

[2] = target: rumen fluid supernatant amylases; assay: Rumen bacterial amylase assay, protocol 2 (amylose azure); conditions: read-out: Average IC50, rumen fluid amylase screen
[3] = target: rumen fluid supernatant amylases; assay: Rumen bacterial amylase assay, protocol 1 (Sigma amylase kit 577); format: biochemical, rumen bacteria, Hereford×Friesian calves; conditions: for pIC50: rumen fluid amylase screen using Sigma kit 577
From the text: Rumen Bacterial Amylase Assay—Protocol 1
The enzymatic reactions involved in the assay are as follows:
5 ET-G7PNP→(α-amylase)→2 ET-G5+2 G2PNP+2 ET-G4+2 G3PNP+ET-G3+G4-PNP2 G2PNP+2 G3 PNP→(α-glucosidase)→4 PNP +10 glucose
α-Amylase hydrolyses 4,6-ethylidene-G7-PNP (ET-G7 PNP) to G2, G3 and G4 PNP fragments. α-Glucosidase (α-1,4-glucan glucohydrolase EC 3.2.1.3) hydrolyses G2PNP and G3PNP to yield p-nitrophenol and glucose. Five moles of substrate (ET-G7PNP) is hydrolysed to yield 4 moles of p-nitrophenol p-Nitrophenol absorbs light as 405 nm, and following a two minute lag period the rate of increase in absorbance at 405 nm is directly proportional to α-amylase activity in the well.
Rumen fluid was collected from 4-month-old Hereford×Friesian calves (125–135 kg, supplied by Cwmnant Calves Ltd. Cwmnant. Tregaron. Ceredigion) fed on diet GH 313. The rumen fluid was collected from slaughtered calves into pre-warmed vacuum flasks, as soon as possible after euthanasia. It was then filtered through a double layer of absorbent gauze (Absorbent gauze BP, GAUZ 4 from Robert Bailey plc, Stockport) to remove hay and feed particles. The liquid was centrifuged at a relative centrifugal force of 23,300 for 60 minutes, and the supernatant decanted, avoiding contamination from the loose top layer of the pellet by careful pouring. The supernatant was then aliquoted into 50 ml plastic tubes and frozen at […]. When required for use in an assay the rumen fluid supernatant was thawed by standing the tubes in cold water. Test compounds or controls were dispensed into the 96-well assay plate at 4 μl/well. 100 μl per well of Sigma amylase reagent 577 (made up to half the volume described in the instructions (i.e. 10 ml for a 577-20 vial)) was then added to each well, followed by 100 μl per well of rumen fluid supernatant. A T=0 reading at 405 nm was taken at this stage using an Anthos plate reader. The plate was then incubated at room temperature or 37° C. until an optical density window of approximately 1.000U was seen (typically one hour at 37° C. or three hours at room temperature). A second reading was taken at 405 nm, and the first reading subtracted from it. Active compounds cause a reduction in the optical density readings when compared to the control without the agent being tested.

[4] = system: rumen fluid fermentation (RUSITEC chronic acidosis model); assay: RUSITEC rumen simulation, chronic acidosis model: Example 8 and acarbose; format: cell-based, cow; conditions: for proportional increase in butyrate production: treatment period vs control period (no treatment: 1%); for change in total VFA production: vs preceding control period (no treatment: −11%)
Method: RUSITEC Result using Example 8 and Acarbose
Daily maintenance procedures as previously described for Acarbose.
Rumen fluid donor cow—Fed GH313Pellets plus barley straw.
Daily Feed—30 g GH313 pellets plus 2.5 g chopped barley straw.
Acarbose: 1 tablet added to each bag to give 100 mg/vessel/d
Example 8: Eight×57 mg pre-weighed samples stored in fridge in […]. On the day before the feed bags were to be placed in RUSITEC, a 57 mg sample was dissolved in 2.28 ml buffer (25 mg/ml). 0.21 ml of this solution was added to 1.9 ml buffer to give a 2.5 mg/ml solution. 1 ml of each solution was added to a prepared feed bag to give 25 and 2.5 mg/vessel/d. and dried overnight at room temperature.

pIC50 [1] | pIC50 [2] | pIC50 [3] | effect in the amylase screen [3] | SMILES | increase in mean daily pH ([4]; 0.02 mM) | proportional increase in butyrate production ([4]; 2.5 mg per vessel per day) | change in total VFA production ([4]; 2.5 mg per vessel per day) | proportional increase in butyrate production ([4]; 25 mg per vessel per day) | change in total VFA production ([4]; 25 mg per vessel per day)
4.47 | 6.10 | 6.77 |  | C[C@H]1O[C@H](O[C@@H]2[C@H](O)[C@H](O)[C@@H](O[C@@H]3[C@H](O)[C@@H](O)[C@@H](O[C@@H]4[C@H](O)[C@H](O)[C@@H](O[C@H]5O[C@@H](CO)[C@H](O)[C@H](O)[C@H]5O)O[C@@H]4CO)O[C@@H]3CO)O[C@H]2CO)[C@H](O)[C@@H](O)[C@@H]1N[C@H]1C=C(CO)[C@@H](O[C@H]2O[C@H](CO)[C@H](O[C@H]3O[C@H](C)[C@@H](N[C@H]4C=C(CO)[C@@H](O)[C@H](O)[C@H]4O)[C@H](O)[C@H]3O)[C@H](O)[C@H]2O)[C@H](O)[C@H]1O (stereo in doubt) [Trestatin A] |  |  |  |  | 
5.39 |  | 5.54 |  | C[C@H]1O[C@H](O[C@@H]2[C@H](O)[C@@H](O)[C@@H](O[C@@H]3[C@H](O)[C@@H](O)[C@@H](O[C@@H]4[C@H](O)[C@H](O)[C@@H](O[C@H]5O[C@H](CO)[C@H](O)[C@H](O)[C@H]5O)O[C@@H]4CO)O[C@@H]3CO)O[C@H]2CO)[C@@H](O)[C@@H](O)[C@@H]1N[C@@H]1C=C(CO)[C@@H](O)[C@@H](O)[C@@H]1O (stereo in doubt) [Trestatin B] |  |  |  |  | 
3.83 |  | 7.05 |  | C[C@H]1O[C@H](O[C@H]2[C@H](O)[C@@H](O)[C@@H](O[C@H]3[C@H](O)[C@@H](O)[C@@H](O[C@H]4[C@H](O)[C@@H](O)[C@@H](O[C@H]5O[C@H](CO)[C@@H](O)[C@H](O)[C@H]5O)O[C@@H]4CO)O[C@@H]3CO)O[C@@H]2CO)[C@H](O)[C@@H](O)[C@@H]1N[C@H]1C=C(CO)[C@@H](O[C@H]2O[C@H](CO)[C@@H](O[C@H]3O[C@H](C)[C@@H](NC4C=C(CO)[C@@H](O[C@H]5O[C@H](CO)[C@@H](O[C@H]6O[C@H](C)[C@@H](NC7C=C(CO)[C@@H](O)[C@H](O)[C@H]7O)[C@H](O)[C@H]6O)[C@H](O)[C@H]5O)[C@H](O)[C@H]4O)[C@H](O)[C@H]3O)[C@H](O)[C@H]2O)[C@H](O)[C@H]1O (some centres unmarked) [Trestatin C] |  |  |  |  | 

More lines, now with the values behind:

SMILES | pIC50 [1] | pIC50 [2] | pIC50 [3] | effect in the amylase screen [3] | increase in mean daily pH ([4]; 0.02 mM) | proportional increase in butyrate production ([4]; 2.5 mg per vessel per day) | change in total VFA production ([4]; 2.5 mg per vessel per day) | proportional increase in butyrate production ([4]; 25 mg per vessel per day) | change in total VFA production ([4]; 25 mg per vessel per day)
CC1OC(OC2C(CO)OC(OC3C(CO)OC(OC4C(CO)OC(OC5C(CO)OC(O)C(O)C5O)C(O)C4O)C(O)C3O)C(O)C2O)C(O)C(O)C1NC1C=C(CO)C(O)C(O)C1O (centres unmarked) [Example 7] | 5.20 |  |  | inhibiting effect |  |  |  |  | 
CC1OC(OC2C(CO)OC(OC3C(CO)=CC(NC4C(C)OC(OC5C(CO)OC(OC6C(CO)OC(OC7C(CO)OC(OC8C(CO)OC(O)C(O)C8O)C(O)C7O)C(O)C6O)C(O)C5O)C(O)C4O)C(O)C3O)C(O)C2O)C(O)C(O)C1NC1C=C(CO)C(O)C(O)C1O (centres unmarked) [Example 8] | 4.88 | 5.02 | 6.36 |  | 0.3 units | 18% | −1% | 20% | −8%
CC1OC(OC2C(CO)OC(OC3C(CO)=CC(NC4C(C)OC(OC5C(CO)OC(OC6C(CO)OC(OC7C(CO)OC(O)C(O)C7O)C(O)C6O)C(O)C5O)C(O)C4O)C(O)C3O)C(O)C2O)C(O)C(O)C1NC1C=C(CO)C(O)C(O)C1O (centres unmarked) [Example V-1532] | 4.18 | 5.68 | 6.24 |  |  |  |  |  | 
